# Source: PubChem BioAssay (NCI)
#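 48-hour exposure; five concentrations; linearly interpolated endpoints. GI50 = concentration required for 50% inhibition of growth. TGI is the concentration that stops growth completely.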
# Columns and labels:
# Experiment in all cases: DTP human tumour cell line panel, 48 h
# HT29 colon = system: HT29 colon
# LOX IMVI melanoma = system: LOX IMVI melanoma
# NCI-H226 lung = system: NCI-H226 lung
# HCC-2998 colon = system: HCC-2998 colon
# SF-295 CNS = system: SF-295 CNS
# SF-539 CNS = system: SF-539 CNS
# OVCAR-3 ovarian = system: OVCAR-3 ovarian
# HOP-92 NSCLC = system: HOP-92 NSCLC
# K-562 leukemia = system: K-562 leukemia
# MCF7 breast = system: MCF7 breast
SMILES,TGI (HT29 colon) [µM],TGI (LOX IMVI melanoma) [µM],TGI (NCI-H226 lung) [µM],TGI (HCC-2998 colon) [µM],TGI (SF-295 CNS) [µM],TGI (SF-539 CNS) [µM],TGI (OVCAR-3 ovarian) [µM],TGI (HOP-92 NSCLC) [µM],TGI (K-562 leukemia) [µM],TGI (MCF7 breast) [µM],GI50 (HT29 colon) [µM],GI50 (LOX IMVI melanoma) [µM],GI50 (NCI-H226 lung) [µM],GI50 (HCC-2998 colon) [µM],GI50 (SF-539 CNS) [µM],GI50 (OVCAR-3 ovarian) [µM],GI50 (HOP-92 NSCLC) [µM],GI50 (K-562 leukemia) [µM],GI50 (MCF7 breast) [µM]
Cc1ccc(OCC2OC(n3cnc4c(N(C)C)nc(Br)nc43)CC2Oc2ccc(C)cc2)cc1 (stereo not given),> 100,> 100,> 100,> 100,> 100,> 100,> 100,> 100,> 100,> 100,–,–,–,–,–,–,–,–,–
CC(C)=CC(=O)O[C@H]1C(=O)O[C@@H]2C[C@H]3[C@H](C)C(=O)C(O[C@@H]4O[C@H](CO)[C@@H](O)[C@H](O)[C@H]4O)=C[C@]3(C)[C@H]3[C@@H](O)[C@H](O)[C@]4(C(=O)O)OC[C@]32[C@@H]14,> 100,> 100,85,57.5,–,67.1,52.1,> 100,> 100,66.1,35.6,40.3,28.4,24.7,26.6,20.3,31.4,25.8,22.2
Cc1ccc(OCC2OC(n3cnc4nc(Cl)nc(Cl)c43)CC2Oc2ccc(C)cc2)cc1 (stereo not given),20.4,3.45,36.3,12.2,30.6,13.9,18.9,9.88,4.83,20.6,–,–,–,–,–,–,–,–,–
O=C(CN1CCN(Cc2ccccc2)CC1)N1CCCn2c1nc1ccccc1c2=O,> 100,> 100,> 100,> 100,> 100,> 100,> 100,52.5,> 100,> 100,–,–,–,–,–,–,–,–,–
O=C(/C=C/c1cccc(Br)c1)c1cccs1,25.3,–,32.7,61.3,30.2,31.9,–,–,16.6,33,–,–,–,–,–,–,–,–,–
CCOC(=O)c1cc(C(=O)c2ccccc2)n2nc(-c3ccc(Cl)cc3)ccc12,64.2,> 100,55.8,51,54.2,–,–,60.5,> 100,53.2,–,–,–,–,–,–,–,–,–
O=c1/c(=C\c2ccccc2)sc2n1C(c1ccccc1)C1(O)CCCCC1N=2 (stereo not given),> 100,> 100,> 100,> 100,–,–,> 100,–,> 100,> 100,–,–,–,–,–,–,–,–,–
COc1cccc(-c2ccc3c4c2O[C@H]2c5[nH]c6ccccc6c5C[C@@]5(O)[C@@H](C3)N(CC3CC3)CC[C@]425)c1,3.19,3.09,30.2,2.87,3.08,3.51,3.3,3.04,4.98,3.06,–,–,–,–,–,–,–,–,–
COc1ccc2[nH]c(Cl)c(/C=C3/C(=O)Nc4cc(C)c(OC)cc43)c2c1,15,17.5,–,17.2,6,4.8,6.46,28.9,> 100,14.4,–,–,–,–,–,–,–,–,–
Clc1cc2c(c(CSC3=NCN(CC4CC4)CN3)c1)OCOC2,63.1,> 100,48.9,28.4,> 100,43.4,> 100,> 100,> 100,93.8,–,–,–,–,–,–,–,–,–
FC(F)(F)c1ccccc1N1CCN(c2nc(-c3cccs3)nc3ccc(Br)cc23)CC1,> 100,> 100,> 100,25,> 100,> 100,76.2,–,> 100,17.5,–,–,–,–,–,–,–,–,–
C/C(=N/NC(=S)Nc1ccccc1Cl)c1cccc(/C(C)=N\NC(=S)Nc2ccccc2Cl)n1,> 100,> 100,> 100,> 100,> 100,> 100,> 100,> 100,> 100,93.7,–,–,–,–,–,–,–,–,–
c1ccc(-c2sc(-c3cccs3)cc2Cc2cccs2)cc1,> 10,> 10,> 10,> 10,> 10,> 10,–,> 10,> 10,> 10,–,–,–,–,–,–,–,–,–
CC(=O)N1CCc2c([nH]c3ccc(Br)cc23)C1c1ccccc1 (stereo not given),> 10,> 10,> 10,> 10,> 10,> 10,> 10,> 10,> 10,> 10,–,–,–,–,–,–,–,–,–
Cn1ccn2c3nc4ccccc4nc3c(=O)c(C#N)c12,> 100,> 100,> 100,> 100,> 100,> 100,> 100,> 100,> 100,> 100,–,–,–,–,–,–,–,–,–
Cc1cc(-c2[nH]c(C(=O)O)cc2I)on1,> 100,–,–,> 100,> 100,–,> 100,> 100,> 100,> 100,–,–,–,–,–,–,–,–,–
COC(=O)C1=C(C)NC2(O)C=CC(=O)C3C(=O)N(c4ccccc4)C(=O)C132 (stereo not given),70.3,> 100,> 100,> 100,> 100,> 100,> 100,> 100,> 100,> 100,–,–,–,–,–,–,–,–,–
Cc1c(C(=O)N2CCN(c3ccc([N+](=O)[O-])cc3)CC2)[n+](=O)c2cc(Cl)c(Cl)cc2n1[O-],90.5,> 100,–,33.2,34.2,32.6,43.2,34.4,> 100,33.2,–,–,–,–,–,–,–,–,–
Cn1c(=O)c2c(nc3n(Cc4ccccc4)c(=O)c(NCCBr)cn23)n(C)c1=O,> 100,> 100,63.1,52,43.1,–,66.7,36.2,> 100,> 100,–,–,–,–,–,–,–,–,–
CCCCc1c(C(=O)OC(C)(C)C)cc(C#Cc2cc(C(=O)OC(C)(C)C)c(CCCC)c(C(=O)OC(C)(C)C)c2)cc1C(=O)OC(C)(C)C,–,–,> 100,> 100,> 100,–,> 100,> 100,–,> 100,–,–,–,–,–,–,–,–,–
CCC1C(c2cccc(OC)c2O)c2cc3c(cc2OC1N1CCCC1)OCO3 (stereo not given),37.5,84.6,–,21.9,50.8,27,44.5,–,38.7,> 100,–,–,–,–,–,–,–,–,–
COc1ccc2cc1Oc1ccc(cc1)C(Sc1ccccc1)CCOC(=O)CC2 (stereo not given),> 100,> 100,> 100,> 100,> 100,> 100,> 100,–,> 100,> 100,–,–,–,–,–,–,–,–,–

SMILES,TGI (HT29 colon) [µM],TGI (LOX IMVI melanoma) [µM],TGI (NCI-H226 lung) [µM],TGI (HCC-2998 colon) [µM],TGI (SF-295 CNS) [µM],TGI (SF-539 CNS) [µM],TGI (OVCAR-3 ovarian) [µM],TGI (HOP-92 NSCLC) [µM],TGI (K-562 leukemia) [µM],TGI (MCF7 breast) [µM],GI50 (HT29 colon) [µM],GI50 (LOX IMVI melanoma) [µM],GI50 (NCI-H226 lung) [µM],GI50 (HCC-2998 colon) [µM],GI50 (SF-539 CNS) [µM],GI50 (OVCAR-3 ovarian) [µM],GI50 (HOP-92 NSCLC) [µM],GI50 (K-562 leukemia) [µM],GI50 (MCF7 breast) [µM]
O=C(/C=C/c1ccsc1)c1ccco1,22.8,14.5,> 63.6,26.3,27.2,32.5,26.9,30.6,> 56.4,6.32,–,–,–,–,–,–,–,–,–
C=CC1ON(Cc2ccccc2)CCc2cc(OC)c(OC)cc21 (stereo not given),> 100,> 100,> 100,> 100,> 100,> 100,> 100,> 100,> 100,> 100,–,–,–,–,–,–,–,–,–
Cc1ccnc2[nH]c(-c3cccc(Cl)c3)cc(=O)c12,> 100,> 100,> 100,> 43,> 100,–,0.162,> 100,–,> 100,–,–,–,–,–,–,–,–,–
O=C1Sc2ccc(Br)cc2C(=O)Sc2ccccc21,35.3,25.3,44.5,29.6,57.5,26.4,27.2,33.6,> 59.3,48.3,–,–,–,–,–,–,–,–,–
O=C(Nc1cccc(C(F)(F)F)c1)O/N=C(/Cl)CCl,> 100,69.9,–,> 100,> 100,> 100,> 100,59.2,> 100,> 100,–,–,–,–,–,–,–,–,–
C1CSCCCSCCSCCCSC1,> 100,> 100,> 100,> 100,> 100,> 100,–,> 100,> 100,> 100,–,–,–,–,–,–,–,–,–
CCOC(=O)/C(=C\c1ccc(N(C)C)cc1)S(=O)(=O)C(F)(F)C(F)(F)C(F)(F)C(F)(F)F,> 100,> 100,> 100,> 100,> 100,> 100,> 100,> 100,> 100,> 100,–,–,–,–,–,–,–,–,–
COc1cc(C2SCC(=O)N2c2ccc(-n3c(-c4ccccc4)nc4ccccc4c3=O)cc2)ccc1O (stereo not given),> 100,> 100,> 100,> 100,> 100,> 100,> 100,68.9,> 100,> 100,–,–,–,–,–,–,–,–,–
O=c1c(SSc2coc3cc(F)ccc3c2=O)coc2cc(F)ccc12,32.3,8.21,> 100,35.6,> 100,> 100,> 100,–,64.2,43.6,–,–,–,–,–,–,–,–,–
CC1(C)[C@@H](Cn2cnc3c(N)ncnc32)CC[C@@]1(C)CO,> 100,> 100,> 100,> 100,> 100,–,> 100,> 100,> 100,> 100,–,–,–,–,–,–,–,–,–
CCOC(=O)Oc1cc2c(c(OC)c1OC)-c1ccc(SC)c(=O)cc1C(NC(=O)C(F)(F)F)CC2 (stereo not given),–,–,0.00301,–,> 100,–,–,0.306,> 100,19.5,–,–,–,0.0146,–,–,–,–,–
COC(=O)c1ccccc1C#CC#Cc1ccccc1C(=O)OC,> 10,> 10,> 10,> 10,> 10,> 10,7.91,–,> 10,> 10,–,–,–,–,–,–,–,–,–
NC(=O)c1nnc2cc(F)ccc2c1N,> 100,> 100,> 100,> 100,> 100,> 100,> 100,–,> 100,> 100,–,–,–,–,–,–,–,–,–
CC(C)C(C/C=C1\CC(CO)(COC(=O)c2ccccc2)OC1=O)C(C)C (stereo not given),38.2,54.6,39.8,44.8,28.7,–,37.7,29.3,44.1,40.9,–,–,–,–,–,–,–,–,–
Cc1ccsc1/C=N/Nc1cc(C)c2cccc(C)c2n1,> 100,–,> 100,> 100,> 100,–,> 100,> 100,–,> 100,–,–,–,–,–,–,–,–,–
CCCCCC(=O)N[C@@H](c1ccccc1)C(O)C(=O)OC1C[C@@]2(O)C(OC(=O)c3ccccc3)C3[C@](C)(C(=O)[C@H](O)C(=C1C)C2(C)C)C(OC1OCC(O)C(O)C1O)C[C@H]1OC[C@@]31OC(C)=O (stereo not given in full),> 36.8,–,> 100,10.5,> 93.7,5.68,5.2,> 100,> 100,> 56.7,–,–,–,–,–,–,–,–,–
O=[N+]([O-])/C(C(Cl)=C(Cl)Cl)=C1\NCCO1,> 100,> 100,> 100,> 100,> 100,> 100,> 100,–,> 100,> 100,–,–,–,–,–,–,–,–,–
ClC(Cl)(Cl)C1=N[C@H]2[C@H](Br)[C@@H]3O[C@@H](c4ccccc4)[C@H](c4ccccc4)O[C@@H]3[C@H]2O1,58.1,33.3,35.5,28.5,34.3,–,31.9,31.5,54,32.6,–,–,–,–,–,–,–,–,–
CC(C)SC(C)(NC(=O)C1C(C)(C)CCC1(C)C)C(=O)O (stereo not given),–,> 100,> 100,> 100,–,> 100,–,> 100,> 100,> 100,–,–,–,–,–,–,–,–,–
COc1ccc(S(=O)(=O)O)cc1-n1nc(C(=O)Nc2ccccc2)n[n+]1-c1cc(S(=O)(=O)[O-])ccc1OC,> 100,–,> 100,> 100,> 100,> 100,> 100,–,> 100,> 100,–,–,–,–,–,–,–,–,–
O=C(NCCC(F)(F)C(F)(F)C(F)(F)C(F)(F)F)NC1OC(CO)C(O)C(O)C1O (stereo not given),> 100,> 100,–,> 100,> 100,> 100,> 100,> 100,> 100,> 100,–,–,–,–,–,–,–,–,–
